Data taken from patent publication US6417220B2, “Mitochondrial membrane stabilizer” (Daiichi Pharmaceutical Co., Ltd., priority 1996, dated 2002).

Columns and labels:
NG108-15 cells [1] = assay: Determination of the intracellular Ca2+ concentration (fura2-AM fluorescence ratio); assay type: cell-based
Description: The present invention will be explained more specifically by referring to the following examples. However, the scope of the present invention is not limited to these examples. The test procedure in the examples was according to the method of Hare et al. (Hare, M. F., et. al., JPET, 266, pp.1626-1635, 1993) unless otherwise indicated. In the examples, “Nefiracetam” means 2-oxo-1-pyrrolidinylacetic acid 2,6-dimethylanilide, and “Ro5-4864” means the mitochondrias benzodiazepine receptor agonist, (7-chloro-5-(4-chlorophenyl)-1,3-dihydro-1-methyl-2H-1,4-benzodiazepin-2-one: TIPS, December, pp. 506-511, 1986).
Changes in the intracellular Ca^2+ concentration caused by Ro5-4864 was studied. Cultured cells (NG108-15 cells: nerve cell x neuroglia cell hybrid) were cultured in DMEM culture medium, and further cultured in Flexiperm Disc (Heraeus Biotechnology) provided with a cover glass and used in the following described below. The cultured NG 108-15 cells were added with Ro5-4864 at final concentration of […]. A fluorescent remedicament, fura2-AM (1-(6-amino-2-(5-carboxy-2-oxazoly-5-benzofuranyloxy)-2-(2-amino-5-methylphenoxy)-ethane-N,N,N′,N′-teraacetic acid, pentaacetoxymethyl ester, Dojindo Laboratories) was dissolved in DMSO (Dimethylsulfoxide, Nakarai Chemical) to prepare a 1 mM solution, and this solution was diluted 200 times with HBS (Herpes-saline solution, composition: NaCl; 130 mM; KCl: 5.4 mM; CaCl2: 1.8 mM; MgSO4: 0.8 mM; D-glucose: 20 mM; Na^+-HEPES; 20 mM, pH 7.3) to prepare a fluorescent reagent solution (final concentration of fra2-AM: 5 μM).
For the determination of intracellular Ca^2+ concentrations, the culture medium was removed from the Petri dish where the NG108-15 cells were cultured, and the dish was washed twice with HBS. The cultured cells were added with the 5 μM fura2-AM solution prepared above, put in a carbon dioxide gas incubator for 30 minutes, and then washed with HBS five times to remove the added fura2-AM solution. Finally, 1 ml of HBS was added to the Flexiperm, and the intracellular Ca^2+ concentration was measured by ARGUS-50/CA (Hamamatsu Photonics). According to this measurement, the fluorescence of Ca^2+-bound type fura-2 emitted at an excitation wavelength of 340 nm and the fluorescence of Ca^2+-free type fura-2 emitted at an excitation wavelength of 380 nm were measured as a pair at a constant interval for the fura-2 loaded cultured cells, and their relative ratio (ratio of fluorescence intensity) was used to analyze the intracellular Ca^2+ dynamics (concentration). An increase in the 340 nm excited fluorescence due to the binding of intracellular calcium ions to the fura2-AM, and a decrease in the 380 nm excited fluorescence were recorded by imaging and the ratio of fluorescence intensity between the fluorescence images was obtained.

NG108-15 cells [2] = assay: Determination of the mitochondrial membrane potential (Rhodamine 123 fluorescence); assay type: cell-based
[3] = male mouse, p.o.; cited from earlier work

## CN(C(=O)Cn1c(=O)n2c(Br)c(-c3cccc(Cl)c3)nc2c2ccccc21)c1ccccc1 [NCS-1044-90, 2-(3-Chlorophenyl)-3-bromo-6-(N-methyl-N-phenylacetamido)-5-oxo-5,6-dihydroimidazo[1,2-c]quinazoline]
NG108-15 cells [1]; Ro5-4864 100 μM applied to cells treated beforehand with NCS-1044-90 10 μM, FIG. 9
  change in intracellular Ca2+ concentration on addition of Ro5-4864: only a very small elevation
NG108-15 cells [2]; NCS-1044-90 10 μM alone, FIG. 10
  change in intracellular mitochondrial membrane potential: No change
NG108-15 cells [2]; Ro5-4864 50 μM added to cells treated with NCS-1044-90 10 μM, FIG. 10
  change in intracellular mitochondrial membrane potential on addition of Ro5-4864: only a very small elevation
NG108-15 cells [2]; further treatment with Ro5-4864 100 μM, cells treated with NCS-1044-90 10 μM, FIG. 10
  change in intracellular mitochondrial membrane potential on further addition of Ro5-4864: slight and gentle elevation

## Cc1cccc(C)c1NC(=O)CN1CCCC1=O [Nefiracetam, 2-oxo-1-pyrrolidinylacetic acid 2,6-dimethylanilide]
NG108-15 cells [1]; Nefiracetam 50 μM alone, after washing, FIG. 5
  change in intracellular Ca2+ concentration: no change
NG108-15 cells [1]; Ro5-4864 25 μM in the presence of Nefiracetam 50 μM, FIG. 5
  change in intracellular Ca2+ concentration on addition of Ro5-4864: almost no change
NG108-15 cells [2]; Nefiracetam 50 μM alone, FIG. 6
  change in mitochondrial membrane potential: no change
NG108-15 cells [2]; Ro5-4864 25 μM in the presence of Nefiracetam 50 μM, FIG. 6
  change in mitochondrial membrane potential on addition of Ro5-4864: almost no change
NG108-15 cells [2]; Ro5-4864 50 μM in the presence of Nefiracetam, FIG. 6
  depolarizing effect of Ro5-4864 on mitochondrial membranes: weak
[3]
  acute toxicity: 2,005 mg/kg

## CN1C(=O)CN=C(c2ccc(Cl)cc2)c2cc(Cl)ccc21 [Ro5-4864, 7-chloro-5-(4-chlorophenyl)-1,3-dihydro-1-methyl-2H-1,4-benzodiazepin-2-one]
NG108-15 cells [1]; Ro5-4864 25 μM alone, FIG. 5, first peak
  change in intracellular Ca2+ concentration: elevation
NG108-15 cells [1]; Ro5-4864 50 μM alone, FIG. 7, first peak
  change in intracellular Ca2+ concentration: elevation
NG108-15 cells [1]; Ro5-4864 50 μM applied after bradykinin and caffeine treatment (endoplasmic reticulum Ca2+ depleted), FIG. 3
  change in intracellular Ca2+ concentration: markedly elevated
NG108-15 cells [1]; Ro5-4864 alone, FIG. 1
  change in intracellular Ca2+ concentration: sharply increases
NG108-15 cells [2]; Ro5-4864 50 μM alone, FIG. 2
  change in mitochondrial membrane potential: remarkably decreased
NG108-15 cells [2]; Ro5-4864 50 μM applied after caffeine and bradykinin, FIG. 4
  change in mitochondrial membrane potential: remarkable decrease

## Cn1c(=O)c2c(ncn2C)n(C)c1=O [caffeine, reference compound]
NG108-15 cells [2]; caffeine 10 μM and bradykinin 1 μM applied, FIG. 4
  change in mitochondrial membrane potential: no alteration
